How the values were obtained:
[1] = test system: skin-grafted C57BL/6 mice; experiment: Skin graft animal model (BALB/c donor, C57BL/6 recipient); type: in vivo, mouse; details: GO88 0.15 mg/kg twice daily
Protocol: To evaluate the immune-suppressive effects of the compounds according to the present invention, a skin graft animal model was established, and the efficacy of the compounds was analyzed in the model.
First, female BALB/c mice aged 7 weeks and weighing approximately 20 g were used as donor animals, and female C57BL/6 mice of the same age and weight were used as recipient animals. All experimental animals were supplied by HanabioTech Co., Ltd.
Prior to the experiment, the animals were acclimatized in SPF-certified facilities for one week and then used in the experiment. The housing conditions were maintained at a temperature of 22±2° C., relative humidity of 55±10%, and a 12-hour light-dark cycle.
To establish the skin graft model, a anesthetic solution consisting of ketamine, […], and PBS in a volume ratio of 1:1:3 was administered intraperitoneally to C57BL/6 mice to induce anesthesia.
The hair on the dorsal side of the anesthetized mice was removed and disinfected, followed by excision of the full-thickness skin using an 8 mm punch. Subsequently, skin of the same size was harvested from donor mice (BALB/c) and transplanted. […]
Subsequently, the proportions of CD3- and B220-positive cells were analyzed using a flow cytometer.

[2] = test system: bleomycin-treated Balb/c mice; experiment: Bleomycin-induced pulmonary fibrosis animal model; type: in vivo, mouse; details: bleomycin mice lung, vs BLM-treated group
From the text: To evaluate the therapeutic efficacy of the compound according to the present invention against pulmonary fibrosis, an animal model of pulmonary fibrosis induced by bleomycin intratracheal administration was established.
For this purpose, 8-week-old male Balb/c mice were subjected to general anesthesia using an inhalation anesthetic (2-3% isoflurane in oxygen), followed by disinfection of the neck region, skin incision, and exposure of the trachea.
Bleomycin (Sigma-Aldrich, USA) was directly administered into the trachea at a concentration of 5 mg/kg in a solution of 100 μL.
Two days prior to Bleomycin administration, the compound of the present invention or the comparative drug was administered intraperitoneally at the specified concentration and dose, and the administration was continued once daily for a total of 14 days.
The experimental groups included Normal, Bleomycin alone (BLM), and BLM plus the compound of the present invention (BLM+GO88, 0.2 mg/kg).
Ten days later, the mice were euthanized humanely using carbon dioxide gas, the trachea was incised, and PBS was injected into the trachea to remove blood from the lungs.
The lung tissue washed with PBS was excised, fixed in 4% paraformaldehyde solution for 24 hours, and then paraffin blocks and tissue sections were prepared. The prepared sections were subjected to pathological analysis using H & E, Masson's trichrome, and Sirius red staining.
Additionally, immunohistochemical (IHC) staining was performed for α-SMA (α-smooth muscle actin), an indicator of lung fibroblast activation.

[3] = test system: Human B Lymphocyte cell line, SU-DHL-8; experiment: Relative cell viability, CCK-8, SU-DHL-8; type: cell-based; details: 48 hours
Protocol: Human-derived B lymphoma cell line SU-DHL-8 (Cat. #CRL-2961) purchased from ATCC was cultured in RPMI-1640 medium containing 10% FBS, 100 U/mL penicillin, and 100 μg/mL streptomycin.
The cell culture medium was then harvested, centrifuged at 1,300 rpm for 5 minutes, and the supernatant was removed. The cells were resuspended in the same medium and dispensed into a 96-well plate (Costar 96-well cell culture plate, Corning) at 90 μL per well, resulting in the conditions specified in Table 5.
Then, 10 μL of CCK-8 was added to each well, and the plates were incubated again at 37° C. in a 5% CO2 incubator for 4 hours.
(§1) In other words, when the survival rate of untreated cells (DMSO) is set at 100%, the relative cell survival rate in each group treated with the drug at different concentrations is indicated.

[4] = test system: Human Bladder cancer cell, T24; experiment: Relative cell viability, CCK-8, T24; type: cell-based; details: 48 hours
Protocol: Human-derived breast cancer cell line MCF-7, human-derived lung cancer cell line A549, human-derived colorectal cancer cell line HCT-116, human pancreatic cancer cell line AsPC-1, glioblastoma cell line A172, and melanoma cell line Malme-3M were obtained from the Korean Cell Bank. gastric cancer cell line SNU-719, and bladder cancer cell line T24 were cultured in RPMI-1640 medium containing 10% FBS.
Following stabilization, the cells were harvested using Trypsin-EDTA treatment, centrifuged at 1,200 rpm for 3 minutes, the supernatant was removed, and the cells were resuspended in the same medium. They were then seeded into a 96-well plate (Costar 96-well cell culture plate, Corning) at 100 μL per well, and the conditions were adjusted as indicated in Table 5.
The cells were cultured in a 5% CO2 incubator at 37° C. for 24 hours, and after stabilization of the cells, each plate was washed with 200 μL of PBS per well and treated with 50 μL of culture medium per well. […]
After that, 10 μL of CCK-8 was added to each well, and the plate was incubated again at 37° C. in a 5% CO2 incubator for 2 hours.
as §1

SMILES	animals with graft pinkening and good blood flow ([1]; day 10 post-transplantation)	animals with graft pinkening and good blood flow ([1]; day 15 post-transplantation)	collagen deposition (Masson's trichrome and Sirius red staining) [2]	expression of α-SMA (IHC) [2]	Relative cell viability (%) ([3]; SU-DHL-8, 1 μM)	Relative cell viability (%) ([3]; SU-DHL-8, 10 μM)	Relative cell viability (%) ([3]; SU-DHL-8, 30 μM)	Relative cell viability (%) ([3]; SU-DHL-8, 50 μM)	Relative cell viability (%) ([4]; T24, 1 μM)	Relative cell viability (%) ([4]; T24, 10 μM)	Relative cell viability (%) ([4]; T24, 30 μM)	Relative cell viability (%) ([4]; T24, 50 μM)
Nc1ncccc1C(=O)NCCCCCCCCCCCCN1CCNCC1 [Compound 14, 2-Amino-N-(12-(piperazin-1-yl)dodecyl)nicotinamide]	three out of five animals	one out of five animals	significantly reduced	significantly suppressed	–	–	–	–	–	–	–	–
CC1(C)CN(CCCCCCCCCCCCC(=O)Nc2nc(N)c3[nH]cnc3n2)CCO1 [Compound 11, 12-[4-(2,2-dimethylmorpholin-4-yl)]dodecyl-N-(6-aminopurine-2-yl)carboxamide]	–	–	–	–	7.63%	6.09%	4.82%	3.29%	28.15%	31.17%	30.42%	29.34%

Reference: patent US20260184700A1, “PDK1 REGULATORY COMPOUND AND COMPOSITION CONTAINING THE SAME” (PROVIBIO CO., LTD., priority 2024, published 2026)
